Measurements taken from ChEMBL document CHEMBL1139447, “Discovery of novel PTP1b inhibitors” (Bioorg Med Chem Lett, 2004).

Assay: Compound was tested for inhibition of Protein tyrosine phosphatase (PTP1B)

Row | Compound | IC50 [µM] | Kd [µM]
1 | O=c1c(O)c(-c2ccccc2)c1=O | 60 | 25
2 | O=Cc1ccccn1 [2-PYRIDINECARBOXALDEHYDE] | > 300 | 100
3 | O=CCCc1ccccc1 [DIHYDROCINNAMALDEHYDE] | > 300 | 150
